The nature of data set [1]: Cycle 1 biodistribution: SPECT/CT time-activity curves (fraction of injected activity). As to conditions: excluding patient 42-030. It is filed as in vivo, human. The protocol: This Example presents the biodistribution, dosimetry, and pharmacokinetics (PK) results of a PK/Dosimetry sub-study performed as part of a Phase III trial. Twenty-seven (27) patients were administered a target activity of 7.4±10% GBq of ^177Lu-PSMA-I&T and underwent single photon emission computed tomography (SPECT)/computed tomography (CT) imaging at four timepoints (4 h, 24 h, 48 h, and 168 h). Image data was analysed to compute time-activity curves (TACs) and subsequently time-integrated activity coefficients (TIACs) in each organ of interest and in organs showing appreciable and meaningful ^177Lu-PSMA-I&T activity. Organ Level Internal Dose Assessment (OLINDA 2.2.3) was used to compute organ and whole body absorbed radiation doses for each patient.
All participating sites underwent a rigorous site setup process during which all dose calibrators, scanners, and gamma counters used in the sub-study were calibrated. Sites were allowed to enroll patients in the sub-study only after the completion and approval of all site setup processes by Invicro. Patients underwent SPECT/CT imaging, with anatomical coverage typically extending from the salivary glands to the pelvis, following the administration of a targeted 7.4±10% GBq of ^177Lu-PSMA-I&T at cycle 1. SPECT/CT imaging was performed at four timepoints: 4 h, 24 h, 48 h, and 168 h post-injection. Additionally, a subset of patients imaged at Cycle 1 (16 out of 27), were also imaged at Cycle 3 (Table 2).
Volume of interest (VOI) (kidneys, bladder, liver, lumbar vertebrae L2-L4, lacrimal glands, salivary glands [parotid and submandibular glands], and whole body) were delineated on each dataset by a trained image analyst. […]
Clearance of the radiopharmaceutical was derived from a data-appropriate fit of each organ's TAC. […] TIACs were calculated through analytical integration of the curve fit extrapolated to infinity. […] The remainder activity was determined by subtracting the cumulative organ TIACs from the whole body TIAC. […]

The nature of data set [2]: Cycle 3 plasma PK modelling. It counts as in vivo, human. As to conditions: n = 15. The protocol: Whole blood samples were collected as detailed in the protocol Schedule of Events i.e. pre-injection, and then at 1 h, 4 h, 24 h, 48 h, and 168 h post-injection. The samples were first centrifuged to separate plasma, and the radioactivity in the plasma was then measured using a gamma counter. Plasma concentrations were subsequently fitted with a bi-exponential function to derive outcome parameters such as the half-life and clearance rate of the radiopharmaceutical in the plasma.
Blood samples were obtained for 15 out of 16 patients at cycle 3. Patients 12-004 had blood taken only at the 24 h timepoint and, therefore, was not included in the plasma PK analysis. Consistent with Cycle 1, the time-course of plasma concentrations was similar among the patients. The ranges of PK parameters obtained at cycle 3 were similar to those from Cycle 1 data (Tables 9A and 9B).
Blood samples were obtained for 15 out of 16 patients at cycle 3. Patients 12-004 had blood taken only at the 24 h timepoint and, therefore, was not included in the plasma PK analysis. Consistent with Cycle 1, the time-course of plasma concentrations was similar among the patients. The ranges of PK parameters obtained at cycle 3 were similar to those from Cycle 1 data (Table 29). See Table 29) Cycle 3 PK plasma modeling results (n15)

These results are taken from patent publication US20250262336A1, “[177LU] LUTETIUM-PSMA I&T COMPOSITION AND DOSIMETRY, KIT, METHOD OF MAKING, AND METHOD OF USING THEREOF” (Curium US LLC, priority 2023, published 2025).

For `O=C(O)CC[C@H](NC(=O)N[C@@H](CCCCNC(=O)CCCCCCC(=O)NCCCC[C@@H](NC(=O)[C@@H](Cc1ccccc1)NC(=O)[C@@H](Cc1ccc(O)c(I)c1)NC(=O)CC[C@H](C(=O)O)N1CCN(CC(=O)O)CCN(CC(=O)O)CCN(CC(=O)O)CC1)C(=O)O)C(=O)O)C(=O)O` [^177Lu-PSMA-I&T, (3S,7 S,26R,29R,32R,37R)-29-benzyl-32-(4-hydroxy-3-iodobenzyl)-5,13,20,28,31,34-hexaoxo-37-(4,7,10-tris(carboxymethyl)-1,4,7,10-tetraazacyclododecan-1-yl)-4,6,12,21,27,30,33-heptaazaheptatriacontane-1,3,7,26,37-pentacarboxylic acid; lutetium-177 (III), metal not drawn], in data set [1], the “whole body activity retention at 4 h, max” value worked out at 78%; the “whole body activity retention at 4 h, min” value is recorded as 24%; the “whole body mean activity retention at 4 h” value is listed as 44%±13%. In data set [2], the “AUC Total, Mean” value came to 25.58 fIA/L × min; the “AUC Total, max” value was found to be 39.62 fIA/L × min; the “AUC Total, median” value is on record as 24.55 fIA/L × min; the “AUC Total, min” value is recorded as 13.86 fIA/L × min. In data set [2], the “Peak Concentration Value, Mean” value is recorded as 0.05 fIA/L; the “Peak Concentration Value, max” value turned out to be 0.07 fIA/L; the “Peak Concentration Value, median” value is 0.04 fIA/L; the “Peak Concentration Value, min” value was determined as 0.03 fIA/L. Also, in data set [2], the “Time of Peak Concentration” value came out at 55.00 min; the “Time of Peak Concentration, Mean” value is listed as 60.67 min; the “Time of Peak Concentration, max” value amounted to 68.00 min; the “Time of Peak Concentration, median” value came out at 60.00 min. In addition, in data set [2], the “Vc, Mean” value is 16.40 L; the “Vc, max” value came to 24.53 L; the “Vc, median” value is given as 16.42 L; the “Vc, min” value amounted to 10.66 L.
